Measurements reported in patent US8653274B2, “Compounds suitable as precursors to compounds that are useful for imaging amyloid deposits” (AstraZeneca AB, priority 2008, dated 2014).

Molecular target: amyloid deposits (Homo sapiens, UniProt P05067)
Experiment: competition binding assay described in WO2007/086800
Settings: unlabeled compound

Sequence of amyloid deposits (P05067 672-711 limits assumed): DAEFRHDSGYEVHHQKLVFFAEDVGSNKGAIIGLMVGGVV

IC50: 0.013 µM
SMILES: CNc1ccc(-c2cc3cc(O)ccc3o2)c(F)n1 [2-(2-Fluoro-6-methylamino-pyridin-3-yl)-benzofuran-5-ol]
